Results taken from ChEMBL document CHEMBL1201862, “PubChem BioAssay data set” (2004).
Values joined by “and” are separate entries in the source; they are usually repeats but may differ in a detail not shown here. Identical values can stand only once. Active and inactive are the calls of the source.

How the values were obtained:
Bcl-2-related protein A1 [1] = target: T1, Bcl-2-related protein A1 (Mus musculus, UniProt Q07440); test: Bfl-1 inhibitors, primary screen, biochemical, fluorescence polarization, FITC-Bid, mouse (AID 432)
T1 sequence (Q07440 whole entry): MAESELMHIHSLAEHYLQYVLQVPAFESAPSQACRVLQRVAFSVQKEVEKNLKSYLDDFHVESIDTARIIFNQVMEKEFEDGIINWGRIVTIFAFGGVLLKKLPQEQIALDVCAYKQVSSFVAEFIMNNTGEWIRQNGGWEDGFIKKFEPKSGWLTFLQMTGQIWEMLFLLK

Bcl-2-related protein A1 [2] = target: T1, Bcl-2-related protein A1; test: Bfl-1 binding inhibitors, SAR follow-up, biochemical, fluorescence polarization (AID 1070)
Protein RecA = target: T2, Protein RecA (Mycobacterium tuberculosis, UniProt P9WHJ3); test: Fluorescence Cell-Free Homogeneous Dose Retest to Identify Inhibitors of RecA-Intein Splicing Activity. [Related pubchem assays (depositor defined):AID2097, AID2223, AID489010, AID492950]; format: functional
T2 sequence (P9WHJ3 whole entry): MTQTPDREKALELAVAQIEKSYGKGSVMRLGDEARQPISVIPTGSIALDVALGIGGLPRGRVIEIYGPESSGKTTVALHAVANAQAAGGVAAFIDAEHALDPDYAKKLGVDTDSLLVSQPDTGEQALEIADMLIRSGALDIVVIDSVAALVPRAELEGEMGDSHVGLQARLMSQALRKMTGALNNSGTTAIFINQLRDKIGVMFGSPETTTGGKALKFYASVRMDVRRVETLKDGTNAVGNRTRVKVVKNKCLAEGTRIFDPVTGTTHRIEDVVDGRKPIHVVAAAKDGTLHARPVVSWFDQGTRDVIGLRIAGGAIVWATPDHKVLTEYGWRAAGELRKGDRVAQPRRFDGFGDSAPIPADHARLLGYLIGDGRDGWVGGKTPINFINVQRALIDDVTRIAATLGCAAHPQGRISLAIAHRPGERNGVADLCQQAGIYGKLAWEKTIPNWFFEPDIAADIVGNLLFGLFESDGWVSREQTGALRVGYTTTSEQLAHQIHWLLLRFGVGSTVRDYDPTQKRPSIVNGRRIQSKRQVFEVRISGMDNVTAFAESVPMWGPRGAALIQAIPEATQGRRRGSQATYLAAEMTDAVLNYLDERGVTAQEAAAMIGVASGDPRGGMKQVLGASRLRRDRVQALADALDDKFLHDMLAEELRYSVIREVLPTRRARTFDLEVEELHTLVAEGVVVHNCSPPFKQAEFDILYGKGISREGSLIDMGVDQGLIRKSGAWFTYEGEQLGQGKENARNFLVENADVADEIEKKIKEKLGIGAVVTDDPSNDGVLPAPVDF

Genome polyprotein = Genome polyprotein (dengue virus type 2, UniProt P29990); test: Dengue-2 NS5 methyltransferase inhibitors, primary screen, biochemical, confirmation dose response (AID 588689); format: functional
Sequence of Genome polyprotein (P29990 2492-3391 limits assumed): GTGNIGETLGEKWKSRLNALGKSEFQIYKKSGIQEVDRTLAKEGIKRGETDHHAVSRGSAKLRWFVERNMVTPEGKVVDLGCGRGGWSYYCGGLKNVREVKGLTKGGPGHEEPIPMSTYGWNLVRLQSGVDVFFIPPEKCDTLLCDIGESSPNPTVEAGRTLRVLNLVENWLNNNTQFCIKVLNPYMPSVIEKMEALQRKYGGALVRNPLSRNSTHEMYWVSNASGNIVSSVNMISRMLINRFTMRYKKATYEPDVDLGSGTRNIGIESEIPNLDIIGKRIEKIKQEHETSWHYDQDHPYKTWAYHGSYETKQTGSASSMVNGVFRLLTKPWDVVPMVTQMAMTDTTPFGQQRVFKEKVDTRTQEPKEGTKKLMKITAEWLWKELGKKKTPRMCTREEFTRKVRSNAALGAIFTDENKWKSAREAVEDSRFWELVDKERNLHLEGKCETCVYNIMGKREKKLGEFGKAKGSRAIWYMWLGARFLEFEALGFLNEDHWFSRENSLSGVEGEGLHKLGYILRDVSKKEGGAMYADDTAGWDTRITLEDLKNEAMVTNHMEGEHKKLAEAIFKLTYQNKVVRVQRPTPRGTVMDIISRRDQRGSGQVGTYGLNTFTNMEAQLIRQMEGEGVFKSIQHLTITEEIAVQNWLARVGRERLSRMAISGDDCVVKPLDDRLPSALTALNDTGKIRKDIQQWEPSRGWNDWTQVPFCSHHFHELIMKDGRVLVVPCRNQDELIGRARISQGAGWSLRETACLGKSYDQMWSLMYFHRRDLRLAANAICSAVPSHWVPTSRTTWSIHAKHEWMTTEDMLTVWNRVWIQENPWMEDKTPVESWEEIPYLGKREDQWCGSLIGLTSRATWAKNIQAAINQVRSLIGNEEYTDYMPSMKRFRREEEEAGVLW

[3] = target: T3, Replicative DNA helicase DnaB (Mycobacterium tuberculosis, UniProt P9WMR3); test: DnaB intein splicing inhibitors, dose response, biochemical, cell-free fluorescence (AID 449749); format: functional
T3 sequence (P9WMR3 whole entry): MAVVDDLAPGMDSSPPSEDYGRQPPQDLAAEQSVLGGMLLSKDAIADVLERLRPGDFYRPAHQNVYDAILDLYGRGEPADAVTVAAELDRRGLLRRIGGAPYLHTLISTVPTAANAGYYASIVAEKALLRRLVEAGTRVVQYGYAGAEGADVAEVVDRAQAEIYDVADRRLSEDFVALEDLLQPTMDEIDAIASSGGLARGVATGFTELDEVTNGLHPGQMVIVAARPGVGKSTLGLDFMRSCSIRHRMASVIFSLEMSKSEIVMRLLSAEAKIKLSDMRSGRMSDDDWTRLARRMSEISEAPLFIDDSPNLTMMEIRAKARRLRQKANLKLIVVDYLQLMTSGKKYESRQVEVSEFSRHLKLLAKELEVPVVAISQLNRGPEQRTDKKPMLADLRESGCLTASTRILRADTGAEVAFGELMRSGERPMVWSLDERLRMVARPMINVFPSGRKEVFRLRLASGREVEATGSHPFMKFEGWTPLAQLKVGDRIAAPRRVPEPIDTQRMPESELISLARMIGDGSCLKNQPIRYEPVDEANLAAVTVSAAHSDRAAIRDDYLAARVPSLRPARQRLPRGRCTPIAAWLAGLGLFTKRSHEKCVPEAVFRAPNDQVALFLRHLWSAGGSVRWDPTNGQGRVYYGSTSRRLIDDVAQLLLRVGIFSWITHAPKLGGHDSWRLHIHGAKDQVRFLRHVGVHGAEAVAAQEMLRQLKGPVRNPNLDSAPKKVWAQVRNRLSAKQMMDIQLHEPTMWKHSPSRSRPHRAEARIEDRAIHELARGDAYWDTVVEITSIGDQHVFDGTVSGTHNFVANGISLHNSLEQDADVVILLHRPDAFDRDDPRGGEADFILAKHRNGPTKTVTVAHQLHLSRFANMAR

Bcl-2-related protein A1 [4] = target: T1, Bcl-2-related protein A1; test: Bfl-1 inhibitors blocking BH3 peptide binding, confirmation, biochemical, TR-FRET, mouse Bfl-1 (AID 621);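 further: TR-FRET binding of GST-Bfl-1 to FITC-labelled Bid peptide via terbium antibody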
[5] = target: Glyceraldehyde-3-phosphate dehydrogenase (Homo sapiens, UniProt P04406)
Sequence of Glyceraldehyde-3-phosphate dehydrogenase (P04406 whole entry): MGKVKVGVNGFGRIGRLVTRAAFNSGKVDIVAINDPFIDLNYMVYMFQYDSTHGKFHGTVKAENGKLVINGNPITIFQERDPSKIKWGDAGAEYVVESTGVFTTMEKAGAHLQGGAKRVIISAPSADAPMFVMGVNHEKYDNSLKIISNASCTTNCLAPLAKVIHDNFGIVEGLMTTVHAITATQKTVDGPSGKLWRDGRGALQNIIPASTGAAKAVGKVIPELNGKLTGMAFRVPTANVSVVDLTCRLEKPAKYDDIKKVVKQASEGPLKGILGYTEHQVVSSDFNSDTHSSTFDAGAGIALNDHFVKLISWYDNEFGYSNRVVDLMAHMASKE

[6] = target: Diphosphomevalonate decarboxylase (Streptococcus pneumoniae serotype 2 (strain D39 / NCTC 7466), UniProt Q9FD53); test: S. pneumoniae DPM-DC inhibition retest, confirmation, biochemical, cuvette format, coupled NADH fluorescence (AID 1028); format: functional
Sequence of Diphosphomevalonate decarboxylase (Q9FD53 whole entry): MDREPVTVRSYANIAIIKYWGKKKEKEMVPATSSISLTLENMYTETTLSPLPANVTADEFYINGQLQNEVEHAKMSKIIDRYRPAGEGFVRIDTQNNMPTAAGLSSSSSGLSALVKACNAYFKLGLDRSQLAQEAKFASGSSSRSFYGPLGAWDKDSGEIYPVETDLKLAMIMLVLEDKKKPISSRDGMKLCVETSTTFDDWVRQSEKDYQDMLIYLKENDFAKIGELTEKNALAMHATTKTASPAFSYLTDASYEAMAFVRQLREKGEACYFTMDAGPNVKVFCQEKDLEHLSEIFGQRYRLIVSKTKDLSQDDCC

NADPH oxidase 1 = NADPH oxidase 1 (Homo sapiens, UniProt Q9Y5S8); test: Late-stage luminescence-based cell-based dose response assay to identify inhibitors of NADPH oxidase 1 (NOX1): Synthesized analogs.; format: functional
Sequence of NADPH oxidase 1 (Q9Y5S8 whole entry): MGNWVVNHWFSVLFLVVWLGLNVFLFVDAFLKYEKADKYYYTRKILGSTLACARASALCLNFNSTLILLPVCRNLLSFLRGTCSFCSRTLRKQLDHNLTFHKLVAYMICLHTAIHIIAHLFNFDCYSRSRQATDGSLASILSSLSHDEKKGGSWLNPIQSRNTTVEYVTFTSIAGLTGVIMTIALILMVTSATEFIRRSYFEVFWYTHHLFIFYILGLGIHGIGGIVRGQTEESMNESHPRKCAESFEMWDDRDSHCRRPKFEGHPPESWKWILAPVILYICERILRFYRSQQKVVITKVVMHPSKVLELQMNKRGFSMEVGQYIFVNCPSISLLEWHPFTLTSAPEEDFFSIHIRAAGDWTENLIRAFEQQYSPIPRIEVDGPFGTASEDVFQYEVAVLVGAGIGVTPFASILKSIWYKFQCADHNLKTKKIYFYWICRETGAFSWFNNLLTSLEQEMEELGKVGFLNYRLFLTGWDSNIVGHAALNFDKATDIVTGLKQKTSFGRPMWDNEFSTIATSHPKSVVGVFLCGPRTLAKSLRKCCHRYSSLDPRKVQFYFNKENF

[7] = target: Sphingosine 1-phosphate receptor 2 (Homo sapiens, UniProt O95136); test: Dose Response Cell Based Assay for Antagonists of the S1P2 Receptor. [Related pubchem assays: 856, 736 ]; format: functional
Sequence of Sphingosine 1-phosphate receptor 2 (O95136 whole entry): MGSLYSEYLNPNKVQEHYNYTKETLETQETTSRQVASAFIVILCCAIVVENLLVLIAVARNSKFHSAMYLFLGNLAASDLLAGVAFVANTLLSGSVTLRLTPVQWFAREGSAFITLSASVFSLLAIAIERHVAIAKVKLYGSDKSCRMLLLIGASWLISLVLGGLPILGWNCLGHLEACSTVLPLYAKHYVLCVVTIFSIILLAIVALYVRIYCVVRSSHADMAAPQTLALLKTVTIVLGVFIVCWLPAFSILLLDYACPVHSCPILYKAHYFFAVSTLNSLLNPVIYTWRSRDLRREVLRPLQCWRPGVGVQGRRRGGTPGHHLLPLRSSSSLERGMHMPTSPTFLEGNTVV

Vero = test: cytotoxicity of synthesized analogs in Vero cells, SAR follow-up, cytotoxicity control for West Nile virus antiviral project, cell-based, set II (AID 2402); format: functional; settings: Chlorocebus sabaeus

With `CN1CCN(C2=C(Cl)C(=O)N(c3ccc(Cl)c(Cl)c3)C2=O)CC1` the IC50 (Bcl-2-related protein A1 [1]) was 0.65 µM (active), the IC50 (Bcl-2-related protein A1 [2]) was 0.362 µM (active) and the EC50 (Protein RecA) was 2.22 µM (active). The IC50 (Genome polyprotein) was 16.9 µM (active), the AC50 [3] was 3.75 µM (active) and the IC50 (Bcl-2-related protein A1 [4]) was 580 nM (active) and 500 nM (active). For the same compound, the IC50 [5] was > 100 µM (not active).
In the case of `O=C(c1cccc(-n2sc3ccccc3c2=O)c1)N1CCOCC1`, the IC50 [6] is reported as 23.1 µM (active).
For `O=C(/C=C/c1ccccc1)N1c2ccccc2Sc2ccc(C(F)(F)F)cc21`, the IC50 (NADPH oxidase 1) was > 50 µM (not active).
For `CN(C)/C=N/C(=O)c1sc2cc(C(F)(F)F)cnc2c1-c1ccccc1`, the IC50 [7] was > 30 µM (not active).
`O=C(CSc1nc2ccc(F)cc2c(=O)n1-c1ccccc1)Nc1ccc2c(c1)CCC2` was tested, and the CC50 (Vero) was > 200 µM (active).
